Assay results from article PMC8277899, “A novel RyR1-selective inhibitor prevents and rescues sudden death in mouse models of malignant hyperthermia and heat stroke” (Nature Communications, 2021).
In brackets after ≈: the same amount, converted by molar mass. Several values for one entry are separate records, joined by “and”; a condition that tells them apart may be missing. Equal entries are not always repeated.

Tests used:
[1] = test system: FDB muscle fibers from R163C mice; assay: In vitro [Ca2+]i by Ca2+-selective microelectrode in FDB fibers from R163C mice; assay type: cell-based, mouse; details: 0-5 µM
Experimental: (§1) WT and mutant mice (R2509C, 8- to 20-week old; R163C, 12- to 16-week old, and G2435R, 12- to 16-week old) were euthanized and flexor digitorum brevis (FDB) muscles were dissected and incubated with 2 mg/mL collagenase (Worthington Biochemical Co., NJ, USA) in the HEPES-Krebs solution containing 2 mg/mL bovine serum albumin for 2–3 h at 37 °C. Following incubation, single cells were separated by gentle trituration in collagenase-free HEPES-Krebs solution. Isolated single FDB cells were seeded on a laminin-coated cover slip of the 35 mm glass-bottom dish or on 96 well plate coated with Cultrex basement membrane matrix (Trevigen, Minneapolis, USA).
Ca^2+ ion specific microelectrode recordings were performed as follows[38],[50]. For in vivo measurements, WT and heterozygous R163C mice (12- to 16-week old) were anesthetized by i.p. injection of 100 mg/kg ketamine and 5 mg/kg xylazine and placed on a 37 °C heating pad and their temperature was monitored. The vastus lateralis was exposed surgically after which its muscle fibers were impaled with double-barreled Ca^2+-selective microelectrode, and the potentials were recorded via a high-impedance amplifier (WPI Duo 773 electrometer; WPI, Sarasota, FL, USA). […] Muscle fibers were impaled with the microelectrodes as above and [Ca^2+]i was determined in the presence of varying (0–5 µM) concentrations of Cpd1.

G2435R mice = assay: In vivo heat stress challenge in awake restrained G2435R mice (38 °C chamber); design: species or system mouse; details: pretreatment 30 mg/kg
[2] = test system: FDB muscle cells from R2509C mice; assay: Mn2+ quench of fura-2 fluorescence in isolated FDB cells from R2509C mice; assay type: cell-based, mouse; details: 0.1 μM
Experimental: as §1
Isolated single FDB cells were incubated with 4 µM Cal520-AM (AAT Bioquest, CA, USA) or fura-2-AM (Thermo Fisher Scientific) dye in the HEPES-Krebs solution (140 mM NaCl, 5 mM KCl, 2 mM CaCl2, 1 mM MgCl2, 11 mM glucose, 5 mM HEPES, pH 7.4) for 30 min at 37 °C. The cells were then washed three times with the HEPES-Krebs solution to remove excess dye, and after 30 min of de-esterification, fluorescence images were obtained with a 20X (NA = 0.75) objective lens of an inverted microscope (Nikon TE2000-E Japan) equipped with the sCMOS camera (Zyla, Andor, Belfast, Northern Ireland) using Metamorph v7 (Molecular Devices). Cal520 was excited at 480 ± 15 nm, and fluorescence was measured at wavelengths of 525 ± 25 nm. […]

[3] = test system: FDB muscle cells from R2509C mice; assay: Ca2+ imaging (Cal520, fura-2) of isolated single FDB cells from R2509C mice, rest, halothane, isoflurane; assay type: cell-based, mouse
Experimental: as §1
Isolated single FDB cells were incubated with 4 µM Cal520-AM (AAT Bioquest, CA, USA) or fura-2-AM (Thermo Fisher Scientific) dye in the HEPES-Krebs solution (140 mM NaCl, 5 mM KCl, 2 mM CaCl2, 1 mM MgCl2, 11 mM glucose, 5 mM HEPES, pH 7.4) for 30 min at 37 °C. The cells were then washed three times with the HEPES-Krebs solution to remove excess dye, and after 30 min of de-esterification, fluorescence images were obtained with a 20X (NA = 0.75) objective lens of an inverted microscope (Nikon TE2000-E Japan) equipped with the sCMOS camera (Zyla, Andor, Belfast, Northern Ireland) using Metamorph v7 (Molecular Devices). Cal520 was excited at 480 ± 15 nm, and fluorescence was measured at wavelengths of 525 ± 25 nm. Fura-2 was excited at alternating lights of 340 ± 6 nm and 380 ± 6 nm, fluorescent light was detected at 510 ± 40 nm, and the ratio of fluorescence excited at 340 nm to that at 380 nm was determined. Imaging experiments were carried out at 26 °C by superfusing a HEPES-Krebs solution with or without halothane or isoflurane. Cpd1 was administered 5 min before measurements. For Mn^2+ quenching experiments, fura-2 was excited at 360 ± 12 nm and emitted fluorescence at 510 ± 40 nm was monitored. The cells were perfused with basal Krebs solution (140 mM NaCl, 5 mM KCl, 1 mM MgCl2, 11 mM glucose, 2 mM CaCl2, 10 mM HEPES, pH 7.4) for 60 s to obtain the baseline signal and then perfused with Mn^2+ quenching Krebs solution (140 mM NaCl, 5 mM KCl, 1 mM MgCl2, 11 mM glucose, 0.5 mM MnCl2, 10 mM HEPES, pH 7.4) for 180 s followed by reperfusion with basal Krebs solution for 120 s.

[4] = Thermodynamic solubility in solutions for injection
R2509C mice = assay: Muscle force in vivo, grip force test (4-grips test), R2509C mice; design: species or system mouse; details: for grip force (sheet Fig S6c): single mice
Experimental: Muscle force was measured in vivo by grip-force test. […] The force was measured before and 10 and 60 min after i.p. injection of saline or Cpd1 (10 mg/kg). Mice (8- to 12-week old) were gently held by the tails and allowed them to grasp the horizontally positioned metal bar of the Grip Strength Meter (MK308M, Muromachi Kikai, Tokyo, Japan) with their forelimbs and hindlimbs (4-grips test). Each mouse performed four trials for force measurement at every time point. The highest force value applied to the metal bar was recorded and normalized by body weight.

CCCCCCCCn1cc(C(=O)O)c(=O)c2cc3c(cc21)OCO3 [Cpd1, 6,7-(methylenedioxy)-1-octyl-4-quinolone-3-carboxylic acid]
effect on [Ca2+]i in quiescent fibers [1]: reduced [Ca^2+]i in R163C fibers in a dose-dependent manner to the level of WT fibers | effect on rise in rectal temperature (G2435R mice): greatly slowed the rise in rectal temperature | effect on rate of Mn2+ quench [2]: no effect | effect on isoflurane-induced increase in [Ca2+]i ([3]; R2509C cells, 0.1 μM): completely prevented | effect on resting [Ca2+]i (Cal520) ([3]; R2509C cells, 0.1 μM): reduced | Ca2+ signal (Cal520, F/F0) ([3]; R2509C cells, 0.1 μM Cpd1, halothane 0.0001): 1 | Ca2+ signal (Cal520, F/F0) ([3]; R2509C cells, 0.1 μM Cpd1, halothane 0.001): 1.0324 and 1.0472 and 0.9774 and 0.9848 and 0.9736 | Ca2+ signal (Cal520, F/F0) ([3]; R2509C cells, 0.1 μM Cpd1, halothane 0.003): 1.0085 and 1.0149 and 0.9846 and 0.9811 and 0.9717 | Ca2+ signal (Cal520, F/F0) ([3]; R2509C cells, 0.1 μM Cpd1, halothane 0.01): 1.0131 and 1.0119 and 0.9966 and 0.9808 and 0.9633 | Ca2+ signal (Cal520, F/F0) ([3]; R2509C cells, 0.1 μM Cpd1, halothane 0.03): 0.9989 and 1.0012 and 1.0266 and 1.0111 and 1.0033 | Ca2+ signal (Cal520, F/F0) ([3]; R2509C cells, 0.1 μM Cpd1, halothane 0.1): 1.0006 and 0.9977 and 1.0575 and 1.0571 and 1.0156 | Ca2+ signal (fura-2 ratio) ([3]; R2509C cells, 0.1 μM Cpd1, isoflurane 0): 1.236 and 1.532 and 1.49 and 1.463 and 1.64 and 1.372 and 1.497 and 1.401 | Ca2+ signal (fura-2 ratio) ([3]; R2509C cells, 0.1 μM Cpd1, isoflurane 0.1): 1.237 and 1.533 and 1.482 and 1.467 and 1.643 and 1.374 and 1.485 and 1.496 | Ca2+ signal (fura-2 ratio) ([3]; R2509C cells, 0.1 μM Cpd1, isoflurane 0.2): 1.24 and 1.549 and 1.492 and 1.502 and 1.673 and 1.396 and 1.504 and 1.444 | Ca2+ signal (fura-2 ratio) ([3]; R2509C cells, 0.1 μM Cpd1, isoflurane 0.5): 1.266 and 1.58 and 1.488 and 1.503 and 1.677 and 1.451 and 1.62 and 1.544 | effect on resting [Ca2+]i (fura-2) ([3]; R2509C cells, 0.1 and 0.3 µM): reduced [Ca^2+]i in R2509C cells in a dose-dependent manner | effect on halothane-induced increases in [Ca2+]i ([3]; R2509C cells, pretreatment 0.1 µM): completely abolished | Ca2+ signal with Cpd1 relative to None = 1 (sheet Fig S1b) ([3]; R2509C, single experiments): 0.9373 and 0.9655 and 0.9601 and 0.9482 and 0.7826 and 0.8571 | water solubility ([4]; free acid): virtually water insoluble | solubility in normal saline compared to dantrolene ([4]; normal saline): 34 fold | solubility at 48 h ([4]; normal saline (0.9% NaCl), 25 °C, saline or isotonic, thermodynamic from solid): 849 ± 58 µg/mL (≈ 2460 µM) | grip force (sheet Fig S6c) (R2509C mice; 10 min after Cpd1): 9.25 and 10 and 6.39 and 8.47 and 6.45 and 7.53 | grip force (sheet Fig S6c) (R2509C mice; 60 min after Cpd1): 10.04 and 12.86 and 9.79 and 9.69 and 9.84 and 10.9 | grip force (sheet Fig S6c) (R2509C mice; Pre (before administration), Cpd1 group): 10.64 and 13.19 and 10.54 and 8.58 and 8.65 and 10.63 | muscle weakness in grip strength test (R2509C mice; R2509C mice, after administration of Cpd1): muscle weakness was also observed in 10 min but recovered within 60 min
